From PubChem BioAssay AID1963871 (Molecular Pharmacology Branch, DTP, NCI, 2024)

System: KRAS-mutant PDC multicell tumor spheroid viability
Experiment: Anticancer human tumor 521955-158-R2-J5-PDC patient-derived pancreatic carcinoma cell line growth inhibition [KRAS2]
Settings: for IC50: curve of first compound; for viability, T/C: stronger effect = lower value
How it was run: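 KRAS-mutant tumor cells were grown as spheroids with HUVEC endothelial cells and human MSCs as stroma. Targeted agents were tested alone and with KRAS pathway inhibitors. Doses started at or near clinical Cmax, or 10 microM, descending half-log.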

[1] = second compound 0.1 µM, first compound 0.0316 µM
[2] = second compound 0.1 µM, first compound 0.1 µM
[3] = second compound 0.316 µM, first compound 0.0316 µM
[4] = second compound 0.316 µM, first compound 0.1 µM
[5] = second compound 1 µM, first compound 0.0316 µM
[6] = second compound 1 µM, first compound 0.1 µM
[7] = second compound 3.16 µM, first compound 0.0316 µM
[8] = second compound 3.16 µM, first compound 0.1 µM
[9] = second compound 10 µM, first compound 0.0316 µM
[10] = second compound 10 µM, first compound 0.1 µM
[11] = second compound 0.1 µM, first compound 0.316 µM
[12] = second compound 0.1 µM, first compound 1 µM
[13] = second compound 0.1 µM, first compound 3.16 µM
[14] = second compound 0.1 µM, first compound 10 µM
[15] = second compound 0.316 µM, first compound 0.316 µM
[16] = second compound 0.316 µM, first compound 1 µM
[17] = second compound 0.316 µM, first compound 3.16 µM
[18] = second compound 0.316 µM, first compound 10 µM
[19] = second compound 1 µM, first compound 0.316 µM
[20] = second compound 1 µM, first compound 1 µM
[21] = second compound 1 µM, first compound 3.16 µM
[22] = second compound 1 µM, first compound 10 µM
[23] = second compound 3.16 µM, first compound 0.316 µM
[24] = second compound 3.16 µM, first compound 1 µM
[25] = second compound 3.16 µM, first compound 3.16 µM
[26] = second compound 3.16 µM, first compound 10 µM
[27] = second compound 10 µM, first compound 0.316 µM
[28] = second compound 10 µM, first compound 1 µM
[29] = second compound 10 µM, first compound 3.16 µM
[30] = second compound 10 µM, first compound 10 µM
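Also: viability read after seven days of drug exposure.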

With `CC(C)n1nc(-c2ccc3oc(N)nc3c2)c2c(N)ncnc21` + CC1OCC2(CCN(c3cnc(Sc4ccnc(N)c4Cl)c(N)n3)CC2)C1N the IC50 (second compound 0.1 µM) was 6.21 nM, the IC50 (second compound 0.316 µM) was 3.52 nM and the IC50 (second compound 1 µM) was 0.359 nM. It also gave an IC50 (second compound 3.16 µM) of under 0.316 nM, an IC50 (second compound 10 µM) of under 0.316 nM and a viability, T/C (second compound 0.1 µM, first compound 0.000316 µM) of 71.5%. It also gave a viability, T/C (second compound 0.1 µM, first compound 0.001 µM) of 71.4%, a viability, T/C (second compound 0.1 µM, first compound 0.00316 µM) of 56.5% and a viability, T/C (second compound 0.1 µM, first compound 0.01 µM) of 44.2%. It also gave a viability, T/C [1] of 32.8%, a viability, T/C [2] of 24.6% and a viability, T/C (second compound 0.316 µM, first compound 0.000316 µM) of 59.1%. It also gave a viability, T/C (second compound 0.316 µM, first compound 0.001 µM) of 57.7%, a viability, T/C (second compound 0.316 µM, first compound 0.00316 µM) of 51.2% and a viability, T/C (second compound 0.316 µM, first compound 0.01 µM) of 39.5%. It also gave a viability, T/C [3] of 31.2%, a viability, T/C [4] of 25.2% and a viability, T/C (second compound 1 µM, first compound 0.000316 µM) of 48.9%. It also gave a viability, T/C (second compound 1 µM, first compound 0.001 µM) of 50.8%, a viability, T/C (second compound 1 µM, first compound 0.00316 µM) of 45% and a viability, T/C (second compound 1 µM, first compound 0.01 µM) of 36.9%. It also gave a viability, T/C [5] of 28.1%, a viability, T/C [6] of 21.6% and a viability, T/C (second compound 3.16 µM, first compound 0.000316 µM) of 47.5%. The viability, T/C (second compound 3.16 µM, first compound 0.001 µM) was 50.8%, the viability, T/C (second compound 3.16 µM, first compound 0.00316 µM) was 37.8% and the viability, T/C (second compound 3.16 µM, first compound 0.01 µM) was 29.4%. It also gave a viability, T/C [7] of 23.4%, a viability, T/C [8] of 19.3% and a viability, T/C (second compound 10 µM, first compound 0.000316 µM) of 47.7%. For the same molecule, the viability, T/C (second compound 10 µM, first compound 0.001 µM) was 50.1%, the viability, T/C (second compound 10 µM, first compound 0.00316 µM) was 41.2% and the viability, T/C (second compound 10 µM, first compound 0.01 µM) was 28.4%. For the same molecule, the viability, T/C [9] was 24.6% and the viability, T/C [10] was 19.6%.
With `CC1(C)CCC(CN2CCN(c3ccc(C(=O)NS(=O)(=O)c4ccc(NCC5CCOCC5)c([N+](=O)[O-])c4)c(Oc4cnc5[nH]ccc5c4)c3)CC2)=C(c2ccc(Cl)cc2)C1` + CC1OCC2(CCN(c3cnc(Sc4ccnc(N)c4Cl)c(N)n3)CC2)C1N the IC50 (second compound 0.1 µM) was 5300 nM, the IC50 (second compound 0.316 µM) was 4270 nM and the IC50 (second compound 1 µM) was 1370 nM. For the same molecule, the IC50 (second compound 3.16 µM) was under 31.6 nM, the IC50 (second compound 10 µM) was under 31.6 nM and the viability, T/C [1] was 70.5%. The viability, T/C [2] was 75.5%, the viability, T/C [11] was 74% and the viability, T/C [12] was 81.3%. For the same molecule, the viability, T/C [13] was 89.9%, the viability, T/C [14] was 15.3% and the viability, T/C [3] was 62.2%. The viability, T/C [4] was 71.7%, the viability, T/C [15] was 51.1% and the viability, T/C [16] was 63.5%. For the same molecule, the viability, T/C [17] was 69.2%, the viability, T/C [18] was 11.9% and the viability, T/C [5] was 53.5%. For the same molecule, the viability, T/C [6] was 51.5%, the viability, T/C [19] was 54.1% and the viability, T/C [20] was 50.3%. It also gave a viability, T/C [21] of 45.7%, a viability, T/C [22] of 8.54% and a viability, T/C [7] of 48.1%. The viability, T/C [8] was 41.3%, the viability, T/C [23] was 35.1% and the viability, T/C [24] was 41.4%. The viability, T/C [25] was 46.7%, the viability, T/C [26] was 8.81% and the viability, T/C [9] was 40.3%. For the same molecule, the viability, T/C [10] was 47.5%, the viability, T/C [27] was 37.2% and the viability, T/C [28] was 40.5%. It also gave a viability, T/C [29] of 17.1% and a viability, T/C [30] of 1.93%.
Molecule `COc1cc(Nc2ncc3c(n2)-c2ccc(Cl)cc2C(c2c(F)cccc2OC)=NC3)ccc1C(=O)O` + CC1OCC2(CCN(c3cnc(Sc4ccnc(N)c4Cl)c(N)n3)CC2)C1N has an IC50 (second compound 0.1 µM) of under 31.6 nM, an IC50 (second compound 0.316 µM) of under 31.6 nM and an IC50 (second compound 1 µM) of under 31.6 nM. For the same molecule, the IC50 (second compound 3.16 µM) was under 31.6 nM, the IC50 (second compound 10 µM) was under 31.6 nM and the viability, T/C [1] was 44.6%. It also gave a viability, T/C [2] of 45.2%, a viability, T/C [11] of 39.7% and a viability, T/C [12] of 38.8%. It also gave a viability, T/C [13] of 37.2%, a viability, T/C [14] of 37.4% and a viability, T/C [3] of 41%. For the same molecule, the viability, T/C [4] was 39.3%, the viability, T/C [15] was 45.5% and the viability, T/C [16] was 34.4%. The viability, T/C [17] was 36.4%, the viability, T/C [18] was 35.8% and the viability, T/C [5] was 39.5%. It also gave a viability, T/C [6] of 35.1%, a viability, T/C [19] of 38.1% and a viability, T/C [20] of 36%. It also gave a viability, T/C [21] of 34.5%, a viability, T/C [22] of 30.5% and a viability, T/C [7] of 38.4%. The viability, T/C [8] was 31.1%, the viability, T/C [23] was 30.8% and the viability, T/C [24] was 30%. It also gave a viability, T/C [25] of 28.2%, a viability, T/C [26] of 33.6% and a viability, T/C [9] of 37.8%. It also gave a viability, T/C [10] of 37.7%, a viability, T/C [27] of 36% and a viability, T/C [28] of 37.1%. For the same molecule, the viability, T/C [29] was 27.1% and the viability, T/C [30] was 31.1%.
For `COc1cc2nccc(Oc3ccc(NC(=O)C4(C(=O)Nc5ccc(F)cc5)CC4)cc3)c2cc1OC` + CC1OCC2(CCN(c3cnc(Sc4ccnc(N)c4Cl)c(N)n3)CC2)C1N, the IC50 (second compound 0.1 µM) was 8050 nM, the IC50 (second compound 0.316 µM) was 5530 nM and the IC50 (second compound 1 µM) was 4800 nM. The IC50 (second compound 3.16 µM) was under 31.6 nM, the IC50 (second compound 10 µM) was 1090 nM and the viability, T/C [1] was 75.7%. For the same molecule, the viability, T/C [2] was 90.5%, the viability, T/C [11] was 74.8% and the viability, T/C [12] was 77.8%. The viability, T/C [13] was 64.1%, the viability, T/C [14] was 46.7% and the viability, T/C [3] was 64.3%. It also gave a viability, T/C [4] of 74.3%, a viability, T/C [15] of 63.5% and a viability, T/C [16] of 71%. It also gave a viability, T/C [17] of 60.3%, a viability, T/C [18] of 37.8% and a viability, T/C [5] of 66.8%. For the same molecule, the viability, T/C [6] was 64.5%, the viability, T/C [19] was 65.6% and the viability, T/C [20] was 60.6%. The viability, T/C [21] was 61%, the viability, T/C [22] was 32% and the viability, T/C [7] was 42.4%. It also gave a viability, T/C [8] of 46.4%, a viability, T/C [23] of 51.4% and a viability, T/C [24] of 52.5%. It also gave a viability, T/C [25] of 46.8%, a viability, T/C [26] of 46.2% and a viability, T/C [9] of 44.9%. It also gave a viability, T/C [10] of 48.7%, a viability, T/C [27] of 53.2% and a viability, T/C [28] of 56.5%. The viability, T/C [29] was 40.1% and the viability, T/C [30] was 27.7%.
